Results reported in US20220290103A1, “METHODS AND COMPOSITIONS USING AUXOTROPHIC REGULATABLE CELLS” (AUXOLYTIC LTD, priority 2019, published 2022).

How the values were obtained:
[1] = test system: K562 cells with wild-type UMPS; test: K562 xenograft model, bioluminescence imaging; type: in vivo, NSG mice; details: UTA supplemented food (same with normal food)
From the text: (§1) For the K562 xenograft assay, 6 to 12 weeks old male NOD SCID gamma mouse (NSG) mice were transplanted with 1×10^6 K562 cells resuspended in […]® protein mixture (Corning, Inc.) 1:1 diluted with PBS under anesthesia. All animals were kept and handled according to institutional guidelines and the experimental protocol was approved by Stanford University's Administrative Panel on Laboratory Animal Care.
(§2) The previously engineered UMPSK^KO/KO K562 cell line expressing firefly luciferase (FLuc) was used in a xenograft model in NSG mice. […] Cas9 RNP is targeted to exon 1 of the HBB locus with a guide RNA and a DNA donor template transduced by rAAV6 which carries a FLuc-2A-GFP-polyA cassette under control of the SFFV promoter. FACS analysis was performed four days after targeting of K562 cells to evaluate GFP expression before sorting of the GFP+ population. In a control group administered the AAV only, 1.61% of the cells were GFP+, and […]. […]
(§3) UMPSK^KO/KO K562 cells or control cells were transplanted subcutaneously and observed weekly with bioluminescence imaging. Luminescence imaging of K562 cells was performed 5 minutes after intraperitoneal (ip) injection of 125 mg/kg D-Luciferin (PerkinElmer) on an IVIS Spectrum imaging system (PerkinElmer). […]

UMPS^KO/KO K562 cells = test: K562 xenograft model, bioluminescence imaging; type: in vivo, NSG mice; details: mice fed with 8% UTA
From the text: as §1, §2, §3

[2] = cited from earlier work
Mock T cells = test: 5-FOA selection, cell counts after 4 days; type: cell-based, human; details: for Average number of cells per volume unit: grown in 5-FOA 4 days, UMP + Urid; for Average of cells per volume unit: grown in 5-FOA without serum
Method: (§4) 5-FOA selects for uracil auxotrophic cells in other organisms (e.g. Boeke et al. 1984, Mol. Gen. Genet. 197(2):345-6), which is hereby incorporated by reference in its entirety). To investigate the potential utility of 5-FOA for the selection of uracil auxotrophs among human cells, the UMPS gene was targeted in human T cells by Cas9-gRNA complex electroporation followed by recovery (as shown in Example 2) followed by an assay of resistance to 5-FOA treatment (FIG. 3A). Cells were grown in 5-FOA and a variety of combinations of serum and uracil sources for 4 days before cell counting was performed.

UMPS-7 targeted T cells = test: 5-FOA selection, cell counts after 4 days; type: cell-based, human; details: for Average number of cells per volume unit: UMPS-7, grown in 5-FOA 4 days, UMP + Urid; for Average of cells per volume unit: UMPS-7, grown in 5-FOA without serum
Method: as §4

UMPS^KO/KO hESCs (GFP+) = test: 5-FOA resistance in co-culture, FACS; type: cell-based, human
From the text: (§5) To assess resistance to 5-FOA, the UMPS-KO hESCs were genetically engineered to express GFP from an expression cassette integrated into a safe-harbor locus for easier identification in co-culture with UMPS-WT cells.
(§6) These UMPS^KO/KO hESCs were mixed with UMPS^WT/WT cells that were not expressing GFP and followed up by fluorescence-activated cell sorting (FACS) analysis in the presence of different concentrations of 5-FOA. Table 16 provides counts of viable GFP+ and GFP− cells after culture with different 5-FOA concentrations.

UMPS^WT/WT cells (GFP−) = test: 5-FOA resistance in co-culture, FACS; type: cell-based, human; details: all tested 5-FOA concentrations
From the text: as §5, §6

[3] = test system: UMPS^KO/KO/GFP^+ K562 cells mixed with UMPS^WT/WT/GFP-negative K562 cells; test: 5-FOA resistance in mixed culture; type: cell-based, human
Method: To determine the resistance of UMPS knockout cells to 5-FOA the purified UMPS^KO/KO/GFP^+ K562 cells were mixed at an equal ratio with UMPS^WT/WT/GFP-negative K562 cells. The cells were cultured in the presence of Uridine and different concentrations of 5-FOA (FIG. 6F).

[4] = test system: UMPS-KO T cells mixed with wild-type T cells; test: 5-FOA selection in mixed population of T cells, FACS; type: cell-based, human
From the text: To evaluate the possibility to select for UMPS^KO/KO cells with 5-FOA, the sorted cells were mixed with wild-type cells, which were labeled with different tracking dyes, and cultured in the presence or absence of 5-FOA. In part of the samples, 5-FOA was only added on the first day (Day 0) while in another group it was supplemented daily. Table 30 and FIG. 7C show the percent (%) of the UMPS-KO T cells (labelled with eFluor670) over time when culturing with or without 5-FOA.
In fact, FACS analysis of a culture of a mixed population of UMPS knockout and wild-type T cells with 5-FOA. UMPS-KO T cells were labeled with eFluor670, and wild-type cells were labeled with carboxyfluorescein succinimidyl ester (CFSE). […] On Day 0 in the control group not treated with 5-FOA, 47.7% of the cells were UMPS-KO T cells, and 52.1% were wild-type cells. On Day 3 in the group with 5-FOA supplemented daily, 74.0% of the cells were UMPS-KO T cells, while 25.8% were wild-type cells. On Day 3 in the control group not treated with 5-FOA, 43.1% of the cells were UMPS-KO T cells, and 56.4% were wild-type cells.

Compound | Tumor burden of UMPS wild-type K562 cells [1] | Luminescence of UMPS^KO/KO K562-derived tumors (UMPS^KO/KO K562 cells) | Increase of uridine serum levels ([2]; humans and mouse models, administration as prodrug) | Tolerability ([2]; mice, food enriched with 8% (w/w) UTA) | Average number of cells per volume unit (Mock T cells; No Serum) | Average number of cells per volume unit (Mock T cells; With Serum) | Average of cells per volume unit (Mock T cells; UMP) | Average of cells per volume unit (Mock T cells; Uridine) | Average number of cells per volume unit (UMPS-7 targeted T cells; No Serum) | Average number of cells per volume unit (UMPS-7 targeted T cells; With Serum) | Average of cells per volume unit (UMPS-7 targeted T cells; UMP) | Average of cells per volume unit (UMPS-7 targeted T cells; Uridine) | Tolerance of UMPS-KO cells (UMPS^KO/KO hESCs (GFP+); 5-FOA 0.25 μg/ml) | Proliferation of UMPS-KO cells (UMPS^KO/KO hESCs (GFP+); 5-FOA concentrations higher than 0.25 μg/ml) | Sensitivity of UMPS-WT cells (UMPS^WT/WT cells (GFP−)) | Proliferation of cells with UMP knockouts ([3]; 5-FOA 10 and 100 μg/ml) | Cell growth of cells with UMP knockouts ([3]; highest 5-FOA concentration) | Percent of UMPS^KO/KO cells in mixed cell population ([4]; 5-FOA daily, Day 3) | wild-type cells among the cells (FACS) ([4]; 5-FOA only on the first day, Day 0) | UMPS-KO T cells among the cells (FACS) ([4]; 5-FOA supplemented daily, Day 3)
CC(=O)OC[C@H]1O[C@@H](n2ccc(=O)[nH]c2=O)[C@H](OC(C)=O)[C@@H]1OC(C)=O [UTA, uridine triacetate] | increase in tumor burden | increased | greater than 10 fold | well tolerated |  |  |  |  |  |  |  |  |  |  |  |  |  |  |  | 
O=C(O)c1[nH]c(=O)[nH]c(=O)c1F [5-FOA, 5-fluoroorotic acid] |  |  |  |  | 49125.44 | 63071.71 | 24770.99 | 53052.43 | 72385.14 | 72181.87 | 58299.26 | 77755.72 | tolerated | impaired proliferation | sensitive | proliferated well | slowed their cell growth down | 74.0% | 56.0% | 74.0%
